Data: the supplement of paper PMC10307832

What was measured:
Experiment in all cases: relative viability (nuclei count vs DMSO), 5 days (fraction); higher = more cells survive
[1] = compound: CC1=CC=C(C=C1)C(=O)CN2C3=C(CCCC3)SC2=N [Pifithrin_alpha] + CC(=O)c1c(C)c2cnc(Nc3ccc(N4CCNCC4)cn3)nc2n(C2CCCC2)c1=O [Palbociclib] (partner 0.5 µM)
Summary of the method: (§1)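 For relative viability, nuclei counts in treated wells were divided by those in vehicle wells. Lung cancer cell lines had been pin-tool dosed in 1536-well plates the day after seeding and cultured for 5 days, then fixed and stained in one step (final 0.05% Triton X-100, 1% formaldehyde, 1 ug/ml Hoechst) and imaged at 4×. Doses were one drug alone or a fixed anchor-drug dose plus five library-drug doses (not always all listed) in √10 steps, and values are duplicate-plate medians.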

Axitinib + Phenformin = compound: CNC(=O)c1ccccc1Sc1ccc2c(/C=C/c3ccccn3)n[nH]c2c1 [Axitinib] + N=C(N)NC(=N)NCCc1ccccc1 [Phenformin] (partner 250 µM)
Summary of the method: as §1

Axitinib + Olaparib = compound: CNC(=O)c1ccccc1Sc1ccc2c(/C=C/c3ccccn3)n[nH]c2c1 [Axitinib] + O=C(c1cc(Cc2n[nH]c(=O)c3ccccc23)ccc1F)N1CCN(C(=O)C2CC2)CC1 [Olaparib] (partner 8 µM)
Summary of the method: as §1

Bemcentinib + Phenformin = compound: Nc1nc(Nc2ccc3c(c2)CC[C@@H](N2CCCC2)CC3)nn1-c1cc2c(nn1)-c1ccccc1CCC2 [Bemcentinib] + N=C(N)NC(=N)NCCc1ccccc1 [Phenformin] (partner 250 µM)
Summary of the method: as §1

Cell Line | relative viability ([1]; first compound 1 µM) | relative viability ([1]; first compound 3.162 µM) | relative viability ([1]; first compound 10 µM) | relative viability ([1]; first compound 31.62 µM) | relative viability ([1]; first compound 100 µM) | relative viability (Axitinib + Phenformin; first compound 0.005 µM) | relative viability (Axitinib + Phenformin; first compound 0.01581 µM) | relative viability (Axitinib + Phenformin; first compound 0.05 µM) | relative viability (Axitinib + Phenformin; first compound 0.1581 µM) | relative viability (Axitinib + Phenformin; first compound 0.5 µM) | relative viability (Axitinib + Olaparib; first compound 0.005 µM) | relative viability (Axitinib + Olaparib; first compound 0.01581 µM) | relative viability (Axitinib + Olaparib; first compound 0.05 µM) | relative viability (Axitinib + Olaparib; first compound 0.1581 µM) | relative viability (Axitinib + Olaparib; first compound 0.5 µM) | relative viability (Bemcentinib + Phenformin; first compound 0.04 µM) | relative viability (Bemcentinib + Phenformin; first compound 0.1265 µM) | relative viability (Bemcentinib + Phenformin; first compound 0.4 µM) | relative viability (Bemcentinib + Phenformin; first compound 4 µM) | relative viability (Bemcentinib + Phenformin; first compound 1.265 µM)
NCI-H1793 | 0.278 | 0.3 | 0.319 | 0.348 | 0.206 | 0.393 | 0.4 | 0.415 | 0.358 | 0.328 | 1 | 0.715 | 0.874 | 0.793 | 1.05 | 0.395 | 0.463 | 0.384 | 0.336 | 
HCC-78 | 0.449 | 0.412 | 0.454 | 0.409 | 0.488 | 0.67 | 0.667 | 0.752 | 0.657 | 0.474 | 0.925 | 0.814 | 0.674 | 0.776 | 0.813 | 0.639 | 0.656 | 0.742 | 0.668 | 
NCI-H322M | 0.381 | 0.56 | 0.501 | 0.474 | 0.525 | 0.886 | 0.754 | 0.812 | 0.712 | 0.989 | 0.965 | 0.849 | 0.753 | 0.724 | 1.06 | 0.726 | 0.804 | 0.739 | 0.833 | 0.862
COR-L23 | 0.287 | 0.26 | 0.281 |  | 0.267 | 0.458 | 0.417 | 0.428 | 0.419 | 0.485 | 0.367 | 0.376 | 0.326 | 0.363 | 0.387 | 0.425 | 0.44 | 0.449 | 0.493 | 0.465
201T | 0.349 | 0.319 | 0.344 | 0.286 | 0.376 | 0.475 | 0.412 | 0.449 | 0.446 | 0.399 | 0.861 | 0.805 | 0.795 | 0.859 | 0.875 | 0.417 | 0.504 | 0.48 | 0.455 | 0.454
NCI-H2347 | 0.468 | 0.415 | 0.442 | 0.386 | 0.365 | 0.454 | 0.405 | 0.529 | 0.393 | 0.259 | 0.592 | 0.629 | 0.575 | 0.65 | 0.557 | 0.423 | 0.447 | 0.329 | 0.334 | 0.364
LCLC-97TM1 |  | 0.293 | 0.204 |  | 0.225 | 0.458 | 0.381 | 0.43 | 0.47 | 0.314 | 0.433 | 0.436 | 0.446 | 0.37 | 0.496 | 0.471 | 0.483 | 0.407 | 0.396 | 0.383
NCI-H2126 | 0.333 | 0.381 | 0.356 | 0.302 | 0.373 | 0.528 | 0.555 | 0.548 | 0.552 | 0.564 | 0.913 | 0.907 | 0.884 | 0.917 | 0.944 | 0.502 | 0.496 | 0.51 | 0.568 | 0.596
NCI-H1944 | 0.326 | 0.303 | 0.277 | 0.233 | 0.284 | 0.204 | 0.199 | 0.206 | 0.191 | 0.189 | 0.469 | 0.397 | 0.384 | 0.402 | 0.427 | 0.202 | 0.211 | 0.219 | 0.206 | 0.217
HCC-15 | 0.514 | 0.731 | 0.765 | 0.516 | 0.625 | 0.469 | 0.458 | 0.51 | 0.472 | 0.464 | 0.77 | 0.75 | 0.766 | 0.682 | 0.667 | 0.486 | 0.532 | 0.516 | 0.499 | 0.465
NCI-H2405 |  | 0.508 | 0.511 | 0.433 | 0.503 | 0.386 | 0.435 | 0.468 | 0.399 | 0.357 | 0.892 | 0.919 | 0.94 | 0.827 | 0.949 | 0.409 | 0.412 | 0.385 | 0.376 | 0.372
COR-L 105 | 0.382 | 0.42 | 0.412 | 0.357 | 0.406 | 0.605 | 0.4 | 0.527 | 0.388 | 0.547 | 0.805 | 0.721 | 0.647 | 0.962 | 0.797 | 0.529 | 0.432 | 0.561 | 0.45 | 0.494
ABC-1 |  | 0.839 | 0.831 | 0.462 | 0.53 | 0.268 | 0.239 | 0.222 | 0.21 | 0.241 | 0.735 |  | 0.659 | 0.974 | 0.78 | 0.191 | 0.267 | 0.23 | 0.239 | 0.253
HCC-366 | 0.33 | 0.289 | 0.28 |  | 0.258 | 0.689 | 0.615 | 0.631 | 0.553 | 0.653 | 0.362 | 0.33 | 0.422 | 0.304 | 0.37 | 0.604 | 0.63 | 0.638 | 0.587 | 0.653
NCI-H1623 |  |  |  |  |  | 0.669 | 0.585 | 0.315 | 0.613 | 0.6 |  |  |  |  |  | 0.607 | 0.497 | 0.621 | 0.563 | 0.641
NCI-H2342 | 0.516 | 0.494 | 0.493 | 0.53 | 0.501 | 0.648 | 0.636 | 0.636 | 0.591 | 0.53 | 0.51 | 0.464 | 0.421 | 0.528 | 0.44 | 0.564 | 0.581 | 0.611 | 0.611 | 0.617
NCI-H2085 | 0.499 | 0.432 | 0.449 | 0.446 | 0.444 | 0.767 | 0.728 | 0.742 | 0.751 | 0.733 | 0.775 | 0.769 | 0.807 | 0.758 | 0.787 | 0.694 | 0.776 | 0.688 | 0.697 | 0.572
